# Assay results reported in US20140004243A1, “SALTY TASTE ENHANCER” (AJINOMOTO CO., INC., priority 2011, published 2014).
# Test system: human
# Assay: Sensory evaluation of salty taste enhancing activity of capsazepine in human
# Format: in vivo
# Conditions: for strength of salty taste middle and after taste: after 2 seconds; for strength of salty taste middle and after taste / strength of salty taste initial taste: relative to control; for strength of salty taste initial taste: first 2 seconds
# Method: The presence or absence of a salty taste enhancing activity in human was examined by a quantitative sensory evaluation test for capsazepine having an ENaC activation to action.
# The quantitative sensory evaluation test was performed as follows. Distilled water containing sodium chloride (0.8 g/dl) was mixed with capsazepine as a sample at 0.0001 to 0.001 g/dl, and the level of a salty taste enhancing activity was measured. Distilled water containing 0.8 g/dl of sodium chloride was used as a control, and distilled water containing 0.9 g/dl or 1.0 g/dl of sodium chloride was used as a comparison target. Using a linear measurement method, a straight line showing 1.0-fold (0.8 g/dl), 1.13-fold (0.9 g/dl), 1.25-fold (1.0 g/dl) positions of sodium chloride concentration was drawn and the position showing the strength of the corresponding salty taste was put down thereon. As for the sensory evaluation, an average of the positions put down by the panelists was determined, and an increase in the level of salty taste relative to the level of salty taste in the control was indicated as a salty taste enhancing rate (fold). […] The “initial taste” means the evaluation of the strength of the salty taste for 2 seconds after placing in the mouth, and the “middle and after taste” means a combination of middle taste and after taste, which is the evaluation of the strength of the salty taste after 2 seconds from placing in the mouth.
# [1] = sample 0.0001 g/dl in 0.8 g/dl sodium chloride
# [2] = sample 0.0005 g/dl in 0.8 g/dl sodium chloride
# [3] = sample 0.001 g/dl in 0.8 g/dl sodium chloride
compound,measurement,setting,value
Oc1cc2c(cc1O)CN(C(=S)NCCc1ccc(Cl)cc1)CCC2 [capsazepine],strength of salty taste middle and after taste,[1],1.05 fold
same,strength of salty taste initial taste,[1],1.04 fold
same,strength of salty taste middle and after taste,[2],1.08 fold
same,strength of salty taste initial taste,[2],1.11 fold
same,strength of salty taste middle and after taste,[3],1.11 fold
same,strength of salty taste initial taste,[3],1.11 fold
same,salty taste enhancing activity in human,summary in words of Table 3,has a salty taste enhancing activity in human
